Source: patent US7642269B2, “Pyrrolo[3,2-B]pyridine derivatives and processes for the preparation thereof” (Yuhan Corporation, priority 2005, dated 2010)
Structures can show the parent of a compound that is named as a salt.

Experiments:
H^+/K^+-ATPase = target: T1, H^+/K^+-ATPase (Sus scrofa, UniProt P19156); test: Inhibitory effects on proton pump (H^+/K^+-ATPase) activity, hog gastric vesicles; type: biochemical; settings: K^+ stimulated H^+/K^+-ATPase activity, hog gastric vesicle, Pi measured at 620 nm
T1 construct: used as an enzyme source of the in vitro enzyme reaction assay of proton pump; from tissue; host or cells: hog gastric fundic mucosa (membrane vesicles, lyophilized)
Summary of the method: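 Lyophilized hog gastric vesicles in Pipes/Tris pH 6.1 were preincubated 5 min with compounds (1% DMSO), then run with ATP for 30 min at 37 °C. Released phosphate was measured by malachite green at 620 nm; K^+-stimulated activity taken as the difference between reactions with and without K^+.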

[1] = tested on: basal gastric acid secretion; test: Inhibitory effects on basal gastric acid secretion in pylorus-ligated rats (Shay's rat model); type: in vivo, Sprague Dawley (SD) rats; settings: oral, one hour before pylorus ligation, total acid output 5 hours after ligation, male SD rats
Experimental: Inhibitory effects of the compounds of the present invention on basal gastric acid secretion were performed according to Shay's rat model (Shay, H., et al., 1945, gastroenterology, 5, 43-61). Male Sprague Dawley (SD) rats (200±10 g body weight) were divided into 3 groups (n=5) and fasted for 24 hours with free access to water. Control group was orally administered with 0.5% methylcellulose alone and the other groups were orally administered with test compounds suspended in 0.5% methyl-cellulose solution at doses of 1, 3 and 10 mg/kg/5 ml one hour before pylorus ligation. Under ether anesthesia, the abdomens of the rats were incised and then the pylorus was ligated. 5 hours after ligation, the animals were sacrificed, and the gastric contents were collected. The collected contents were centrifuged at 1,000×g for 10 minutes to obtain the gastric juice. Total acid output was measured by 0.01N NaOH volume (ueq/ml) for automatic titration of the gastric juice to pH 7.0 and the ED50s of test compounds were calculated using the Litchfield-Wilcoxon method. % inhibitory activity was calculated from the following equation and the results are shown in Table 2. % inhibitory activity of test compound=(total acid output of control group−total acid output of the group treated with test compounds)/total acid output of control group X 100

[2] = target: T2, hog gastric H^+/K^+-ATPase (Sus scrofa, UniProt P19156); test: Reversible inhibition of hog gastric H^+/K^+-ATPase (Washout method); type: biochemical; settings: for inhibition of H^+/K^+-ATPase activity after washout: activity completely recovered to non-treated group level; for inhibition of H^+/K^+-ATPase activity before washout: at the concentration giving 50% inhibition of the proton pump
T2 construct: from tissue; host or cells: hog fundic mucosa (gastric vesicles / microsomes, lyophilized)
Experimental: 3-1. […] Gastric vesicles were prepared from hog fundic mucosa using the method of Saccomani et al. (Saccomani […], Lewin M and Sachs G, Characterization of gastric mucosal membranes. IX. Fraction and purification of K-ATPase-containing vesicles by zonal centrifugation and free-flow electrophoresis technique. Biochem. Biophy. Acta. (BBA)-Biomembranes 465, 311-330, 1977.). This material was lyophilized and stored at -70° C. The protein content of gastric vesicles was determined by the Bradford method using bovine serum albumin as a standard (Bradford M M, A rapid and sensitive method for the quantitation of microgram quantities of protein utilizing the principle of protein-dye binding. Anal Biochem. 72, 248-254, 1976). 3-2. Determination of reversible inhibition of hog gastric H^+/K^+-ATPase Activity of H^+/K^+-ATPase in hog microsome (lyophilized vesicle) was measured by the inorganic phosphate released from ATP using an one-step colorimetric detection method at the concentration at which the test compounds have 50% inhibition of the proton pump (Chan […], and Junger K D, A direct colorimetric assay for Ca^2+-stimulated ATPase activity. Anal Biochem, 157, 375-380, 1986). […] Differentiation of their inhibition characteristics from those of omeprazole. Eur. J. Pharmacol., 187, 455-67, 1990). Lyophilized vesicle in the solution of 5 mM Pipes/Tris buffer was pre-incubated in the presence of the test compounds (the compounds of Examples 50, 64, and 94) at the concentration at which it has 50% inhibition of the proton pump. The previous reaction buffer was added with 2 mM MgCl2, 50 mM KCl, 5 uM Valinomycin, and 0.5 mM ATP and then incubated for 30 minutes at 37° C. The H^+/K^+-ATPase activity was measured using the calorimetric detection method and then the test sample was centrifuged at 100,000×g for 1 hr. The vesicles are present in the form of pellets in the test sample. The supernatant thereof was replaced with the same buffer not having the test compound. […] The H^+/K^+-ATPase activity was also measured using the calorimetric detection method. The H^+/K^+-ATPase activity before washout and after washout in the test sample was analyzed, in comparison with those in the non-treated group.

T2 sequence (P19156 2-1034 limits assumed): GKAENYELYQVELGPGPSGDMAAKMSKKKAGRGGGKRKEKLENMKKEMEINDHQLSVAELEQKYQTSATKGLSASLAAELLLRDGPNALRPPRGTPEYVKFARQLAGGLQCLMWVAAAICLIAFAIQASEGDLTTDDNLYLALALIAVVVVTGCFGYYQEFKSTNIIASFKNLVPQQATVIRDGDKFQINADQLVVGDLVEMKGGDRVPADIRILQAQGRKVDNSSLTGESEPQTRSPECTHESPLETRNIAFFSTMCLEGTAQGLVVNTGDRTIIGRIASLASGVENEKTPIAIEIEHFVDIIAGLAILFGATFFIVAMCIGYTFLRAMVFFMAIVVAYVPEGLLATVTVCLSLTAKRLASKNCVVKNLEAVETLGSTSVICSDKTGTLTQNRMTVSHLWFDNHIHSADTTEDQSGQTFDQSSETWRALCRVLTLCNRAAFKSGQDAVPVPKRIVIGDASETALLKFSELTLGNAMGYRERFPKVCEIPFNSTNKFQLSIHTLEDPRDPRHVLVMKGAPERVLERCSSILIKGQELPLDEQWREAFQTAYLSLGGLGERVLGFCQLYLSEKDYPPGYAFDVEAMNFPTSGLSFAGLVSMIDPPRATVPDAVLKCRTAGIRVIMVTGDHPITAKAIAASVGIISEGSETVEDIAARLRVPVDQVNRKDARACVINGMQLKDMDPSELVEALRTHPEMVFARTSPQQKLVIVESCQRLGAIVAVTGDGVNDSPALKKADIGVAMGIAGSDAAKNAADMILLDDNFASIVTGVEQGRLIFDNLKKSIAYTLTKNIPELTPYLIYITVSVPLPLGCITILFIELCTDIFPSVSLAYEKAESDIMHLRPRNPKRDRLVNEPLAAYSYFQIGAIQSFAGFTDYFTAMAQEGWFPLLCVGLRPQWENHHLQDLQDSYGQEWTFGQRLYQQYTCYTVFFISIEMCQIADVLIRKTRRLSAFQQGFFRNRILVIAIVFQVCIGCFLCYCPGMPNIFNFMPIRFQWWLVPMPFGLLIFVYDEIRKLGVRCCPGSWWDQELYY
T2 sequence (P18434 whole entry partner): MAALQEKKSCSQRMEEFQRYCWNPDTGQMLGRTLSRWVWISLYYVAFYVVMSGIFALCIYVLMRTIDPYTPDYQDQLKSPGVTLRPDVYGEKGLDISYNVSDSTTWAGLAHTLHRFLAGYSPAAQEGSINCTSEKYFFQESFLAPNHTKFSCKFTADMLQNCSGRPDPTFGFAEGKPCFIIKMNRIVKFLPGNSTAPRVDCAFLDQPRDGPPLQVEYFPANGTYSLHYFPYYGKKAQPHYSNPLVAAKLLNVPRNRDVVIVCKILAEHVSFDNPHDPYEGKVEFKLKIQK
T1 sequence (P19156 2-1034 limits assumed): as the sequence (P19156 2-1034 limits assumed) above
T1 sequence (P18434 whole entry partner): as the sequence (P18434 whole entry partner) above

Row | SMILES | IC50 (H^+/K^+-ATPase) | ED50 [1] | inhibition of H^+/K^+-ATPase activity after washout [2] | inhibition of H^+/K^+-ATPase activity before washout [2]
1 | COCCn1c(C)c(C)c2nccc(OCc3ccc(Cl)cc3)c21.Cl [Example 86, 7-(4-chlorobenzyloxy)-1-(2-methoxyethyl)-2,3-dimethyl-1H-pyrrolo[3,2-b]pyridine hydrochloride] | 0.05 µM | 1.1 mg/kg |  | 
2 | Cc1c(C)n(CC2CC2)c2c(OCc3ccc(Cl)cc3)ccnc12.Cl [Example 97, 7-(4-chlorobenzyloxy)-1-cyclopropylmethyl-2,3-dimethyl-1H-pyrrolo[3,2-b]pyridine hydrochloride] | 0.09 µM | 2 mg/kg |  | 
3 | C=CCn1c(C)c(C)c2nccc(OCc3ccc(Cl)cc3)c21.Cl [Example 72, 1-allyl-7-(4-chlorobenzyloxy)-2,3-dimethyl-1H-pyrrolo[3,2-b]pyridine hydrochloride] | 0.03 µM | 2 mg/kg |  | 
4 | Cc1c(C)n(CC2CCC2)c2c(OCc3ccc(F)cc3)ccnc12.Cl [Example 55, 1-cyclobutylmethyl-7-(4-fluorobenzyloxy)-2,3-dimethyl-1H-pyrrolo[3,2-b]pyridine hydrochloride] | 0.07 µM | 1.3 mg/kg |  | 
5 | Cc1c(C)n(Cc2ccccc2)c2c(OCc3ccc(F)cc3)ccnc12.O=S(=O)(O)c1ccccc1 [Example 64, 1-benzyl-7-(4-fluorobenzyloxy)-2,3-dimethyl-1H-pyrrolo[3,2-b]pyridine benzenesulfonate] |  |  | did not inhibit | 
6 | CCCn1c(C)c(C)c2nccc(OCc3ccc(F)cc3)c21.Cl [Example 62, 7-(4-fluorobenzyloxy)-2,3-dimethyl-1-propyl-1H-pyrrolo[3,2-b]pyridine hydrochloride] | 0.11 µM | 1.6 mg/kg |  | 
7 | Cc1c(C)n(Cc2ccccc2)c2c(OCc3ccc(Cl)cc3)ccnc12.Cl [Example 73, 1-benzyl-7-(4-chlorobenzyloxy)-2,3-dimethyl-1H-pyrrolo[3,2-b]pyridine hydrochloride] | 0.04 µM | 2.5 mg/kg |  | 
8 | COC(=O)c1ccc(Cn2c(C)c(C)c3nccc(OCc4ccc(Cl)cc4)c32)cc1.Cl [Example 94, 7-(4-chlorobenzyloxy)-1-(4-methoxycarbonylbenzyl)-2,3-dimethyl-1H-pyrrolo[3,2-b]pyridine hydrochloride] | 0.89 µM |  | did not inhibit | 50%
9 | Cc1ccc(Cn2c(C)c(C)c3nccc(OCc4ccc(F)cc4)c32)cc1 [Example 34, 7-(4-fluorobenzyloxy)-2,3-dimethyl-1-(4-methylbenzyl)-1H-pyrrolo[3,2-b]pyridine hydrochloride] | 0.23 µM |  |  | 
10 | COC(=O)c1ccc(Cn2c(C)c(C)c3nccc(OCc4ccc(F)cc4)c32)cc1 [Example 35, 4-[7-(4-fluorobenzyloxy)-2,3-dimethyl-pyrrolo[3,2-b]pyridin-1-ylmethyl]-benzoic acid methyl ester hydrochloride] | 1.09 µM |  |  | 
11 | Cc1c(C)n(CC2OCCO2)c2c(OCc3ccc(F)cc3)ccnc12 [Example 39, 1-(1,3-dioxolan-2-ylmethyl)-7-(4-fluorobenzyloxy)-2,3-dimethyl-1H-pyrrolo[3,2-b]pyridine hydrochloride] | 0.22 µM |  |  | 
12 | Cc1c(C)n(Cc2cccc(F)c2)c2c(OCc3ccc(Br)cc3)ccnc12 [Example 222, 7-(4-bromobenzyloxy)-1-(3-fluorobenzyl)-2,3-dimethyl-1H-pyrrolo[3,2-b]pyridine hydrochloride] | 0.06 µM |  |  | 
13 | CC(C)=CCn1c(C)c(C)c2nccc(OCc3ccc(F)cc3)c21 [Example 56, hydrochloride] | 0.57 µM |  |  | 
14 | COCn1c(C)c(C)c2nccc(OCc3ccc(Cl)cc3Cl)c21 [Example 134, 7-(2,4-dichlorobenzyloxy)-1-methoxymethyl-2,3-dimethyl-1H-pyrrolo[3,2-b]pyridine hydrochloride] | 0.54 µM |  |  | 
15 | Cc1c(C)n(CC(C)C)c2c(OCc3ccc(F)cc3)ccnc12.Cl [Example 50, 7-(4-fluorobenzyloxy)-1-isobutyl-2,3-dimethyl-1H-pyrrolo[3,2-b]pyridine hydrochloride] | 2.44 µM | 2.4 mg/kg | did not inhibit | 50%
16 | Cc1c(C)n(CC2CNC(=O)O2)c2c(OCc3ccc(Cl)cc3)ccnc12 (centres unmarked) [Example 81, 5-[7-(4-chlorobenzyloxy)-2,3-dimethyl-pyrrolo[3,2-b]pyridin-1-ylmethyl]-oxazolidin-2-one hydrochloride] | 1.25 µM |  |  | 
17 | Cc1cccc(Cn2c(C)c(C)c3nccc(OCc4ccc(Br)cc4)c32)c1 [Example 223, 7-(4-bromobenzyloxy)-2,3-dimethyl-1-(3-methylbenzyl)-1H-pyrrolo[3,2-b]pyridine hydrochloride] | 1.21 µM |  |  | 
18 | COCCn1c(C)c(C)c2nccc(OCc3cc(F)cc(F)c3)c21 [Example 181, 7-(3,5-difluorobenzyloxy)-1-(2-methoxyethyl)-2,3-dimethyl-1H-pyrrolo[3,2-b]pyridine hydrochloride] | 4.71 µM |  |  | 
19 | COCCn1c(C)c(C)c2nccc(OCc3ccc(F)cc3)c21.Cl [Example 61, 7-(4-fluorobenzyloxy)-1-(2-methoxyethyl)-2,3-dimethyl-1H-pyrrolo[3,2-b]pyridine hydrochloride] | 0.1 µM | 3 mg/kg |  | 
20 | Cc1c(C)n(CC2CC2)c2c(OCc3ccc(Cl)cc3Cl)ccnc12.Cl [Example 139, 1-cyclopropylmethyl-7-(2,4-dichlorobenzyloxy)-2,3-dimethyl-1H-pyrrolo[3,2-b]pyridine hydrochloride] | 0.02 µM | 1.6 mg/kg |  | 
21 | Cc1cccc(COc2ccnc3c(C)c(C)n(Cc4ccc(Cl)cc4)c23)c1 [Example 147, 1-(4-chlorobenzyl)-2,3-dimethyl-7-(3-methylbenzyloxy)-1H-pyrrolo[3,2-b]pyridine hydrochloride] | 3.45 µM |  |  | 
22 | C=CCn1c(C)c(C)c2nccc(OCc3ccc4c(c3)OCO4)c21 [Example 98, 1-allyl-7-(benzo[1,3]dioxol-5-ylmethoxy)-2,3-dimethyl-1H-pyrrolo[3,2-b]pyridine hydrochloride] | 0.62 µM |  |  | 
23 | Cc1c(C)n(Cc2ccc(Cl)cc2)c2c(N3CCc4ccccc4C3)ccnc12 [Example 1, 1-(4-chlorobenzyl)-7-(1,2,3,4-tetrahydroisoquinolin-2-yl)-2,3-dimethyl-1H-pyrrolo[3,2-b]pyridine hydrochloride] | 0.65 µM |  |  | 
24 | Cc1c(C)n(Cc2cccc(F)c2)c2c(OCc3ccc4c(c3)OCO4)ccnc12 [Example 116, 7-(benzo[1,3]dioxol-5-ylmethoxy)-1-(3-fluorobenzyl)-2,3-dimethyl-1H-pyrrolo[3,2-b]pyridine hydrochloride] | 0.15 µM |  |  | 
25 | COC(=O)CCn1c(C)c(C)c2nccc(OCc3ccc(F)cc3)c21 [Example 57, 1-[2-(methoxycarbonyl)ethyl]-7-(4-fluorobenzyloxy)-2,3-dimethyl-1H-pyrrolo[3,2-b]pyridine hydrochloride] | 0.27 µM |  |  | 
